The results in this text go back to patent US12172959B2, “Mono- or di-substituted indole derivatives as dengue viral replication inhibitors” (priority 2015, dated 2024).

Usually EC50 stands for the concentration needed to bring the measured effect to its halfway point. What is called CC50 is the concentration at which the toxic effect on the cells reaches its halfway point.

The subject of one data set is DENV-3 strain H87. Put plainly: Tetravalent RT-qPCR assay Protocol A, serotype 3. It counts as cell-based. To be noted: Dengue virus, DENV3, 72 h, RT-qPCR serotype 3 H87, Vero cells, day 3. The procedure: (§1) The antiviral activity of the compounds of the invention was tested against DENV-1 strain TC974#666 (NCPV; Table 6), DENV-2 strain 16681 (Table 7), DENV-3 strain H87 (NCPV; Table 8) and DENV-4 strains H241 (NCPV; Table 9A) and SG/06K2270DK1/2005 (Eden; Table 9B) in a RT-qPCR assay. Therefore, Vero cells were infected with either DENV-1, or -2, or -3, or -4 in the presence or absence of test compounds. At day 3 post-infection, the cells were lysed and cell lysates were used to prepare cDNA of both a viral target (the 3′UTR of DENV; Table 2) and a cellular reference gene (β-actin, Table 2). Subsequently, a duplex real time PCR was performed on a Lightcycler480 instrument. The generated Cp value is inversely proportional to the amount of RNA expression of these targets. Inhibition of DENV replication by test compound results in a shift of Cp's for the 3′UTR gene. On the other hand, if a test compound is toxic to the cells, a similar effect on β-actin expression will be observed. The comparative ΔΔCp method is used to calculate EC50, which is based on the relative gene expression of the target gene (3′UTR) normalized with the cellular housekeeping gene (β-actin).
(§2) The culture medium consisted of minimal essential medium supplemented with 2% of heat-inactivated fetal calf serum, 0.04% gentamycin (50 mg/mL) and 2 mM of L-glutamine. Vero cells, obtained from ECACC, were suspended in culture medium and 75 μL/well was added in 96-well plates (10000 cells/well), which already contain the antiviral compounds. […] In addition, each plate contains wells which are assigned as virus controls (containing cells and virus in the absence of compound) and cell controls (containing cells in the absence of virus and compound). Once the cells were added in the plates, the plates were incubated in a fully humidified incubator (37° C., 5% CO2) until the next day. Dengue viruses serotype-1, 2, 3 and 4 were diluted in order to obtain a Cp of ˜22-24 in the assay. Therefore, 25 μL of virus suspension was added to all the wells containing test compound and to the wells assigned as virus control. In parallel, 25 μL of culture medium was added to the cell controls. Next, the plates were incubated for 3 days in a fully humidified incubator (37° C., 5% CO2). After 3 days, the supernatant was removed from the wells and the cells were washed twice with ice-cold PBS (˜100 μL). The cell pellets within the 96-well plates were stored at −80° C. for at least 1 day. Next, RNA was extracted using the Cells-to-CT™ lysis kit, according to the manufacturer's guideline (Life Technologies). The cell lysates can be stored at −80° C. or immediately used in the reverse transcription step.
(§3) In preparation of the reverse transcription step, mix A (table 3A) was prepared and 7.57 μL/well was dispensed in a 96-well plate. After addition of 5 μL of the cell lysates, a five minute denaturation step at 75° C. was performed (table 3B). Afterwards, 7.43 μL of mix B was added (table 3C) and the reverse transcription step was initiated (table 3D) to generate cDNA.
(§4) Finally, a RT-qPCR mix was prepared, mix C (table 4A), and 22.02 μL/well was dispensed in 96-well LightCycler qPCR plates to which 3 μL of cDNA was added and the qPCR was performed according to the conditions in table 4B on a LightCycler 480.
(§5) Using the LightCycler software and an in-house LIMS system, dose response curves for each compound were calculated and the half maximal effective concentration (EC50) and the half maximal cytotoxic concentration (CC50) were determined.
(In qPCR the cycle at which signal appears reflects the starting amount.)

For another data set, the system named is DENV-2 16681 strain. Kind of data set: DENV-2 antiviral assay (eGFP fluorescence, Vero cells). Type of data set: cell-based, Dengue virus. The settings on record: DENV-2 16681 eGFP, MOI 0.5, 3 days. The procedure, abridged:
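eGFP-labelled DENV-2 16681 infected Vero cells (2500/well, MEM + 2% FCS) at MOI 0.5, one day after seeding onto 9-step 5-fold compound dilutions. After 3 days at 37 °C, eGFP fluorescence read at 488 nm; % inhibition normalised to virus and cell controls, EC50 by linear interpolation.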

A further data set relates to DENV-1 strain TC974#666. Put plainly: Tetravalent RT-qPCR assay Protocol A, serotype 1. It counts as cell-based. The settings on record: Dengue virus, DENV1, 72 h, RT-qPCR serotype 1 TC974#666, Vero cells, day 3. As for the experimental part:
as §1, §2, §3, §4, §5

In the next data set the test system is Vero cells. The settings on record: African green monkey.

Take `COc1cc(NC(C(=O)c2c[nH]c3cc(F)ccc23)c2ccc(Cl)cc2OC)cc(S(C)(=O)=O)c1` (single isomer, unassigned) [Compound 1A, 2-(4-chloro-2-methoxyphenyl)-1-(6-fluoro-1H-indol-3-yl)-2-((3-methoxy-5-(methylsulfonyl)phenyl)amino)ethanone]: the values for the EC50 in the data set with DENV-3 strain H87, with DENV-2 16681 strain and in the data set on DENV-1 strain TC974#666 were 23 nM, 0.26 nM and 2.5 nM, respectively. Besides, the CC50 in the data set on Vero cells stood at 4300 nM.

As to `COc1cc(NC(C(=O)c2c[nH]c3c(C)c(F)ccc23)c2ccc(Cl)cc2OC)cc(S(C)(=O)=O)c1` (single isomer, unassigned) [Compound 2A, 2-(4-chloro-2-methoxyphenyl)-1-(6-fluoro-7-methyl-1H-indol-3-yl)-2-((3-methoxy-5-(methylsulfonyl)phenyl)amino)ethanone], the EC50 came out at 19 nM with DENV-3 strain H87, 0.26 nM in the data set with DENV-2 16681 strain and 2.4 nM in the data set on DENV-1 strain TC974#666. The molecule further had a 50% cytotoxic concentration (CC50) with Vero cells of 4800 nM.

On to `COc1cc(NC(C(=O)c2c[nH]c3cc(OC)c(C)cc23)c2ccc(Cl)cc2OC)cc(S(C)(=O)=O)c1` (single isomer, unassigned) [Compound 4A, 2-(4-chloro-2-methoxyphenyl)-2-((3-methoxy-5-(methyl-sulfonyl)phenyl)amino)-1-(6-methoxy-5-methyl-1H-indol-3-yl)ethanone], for which the EC50 came to 15 nM in the data set on DENV-3 strain H87, 0.27 nM in the data set with DENV-2 16681 strain and 0.97 nM in the data set on DENV-1 strain TC974#666. Further, the midpoint of cytotoxicity with Vero cells, the CC50, lay at 4200 nM.

Consider `COc1cc(NC(C(=O)c2c[nH]c3cc(OC)c(F)cc23)c2ccc(Cl)cc2OC)cc(S(C)(=O)=O)c1` (single isomer, unassigned) [Compound 5A, 2-(4-chloro-2-methoxyphenyl)-1-(5-fluoro-6-methoxy-1H-indol-3-yl)-2-((3-methoxy-5-(methylsulfonyl)phenyl)amino)ethanone], for which the EC50 amounted to 53 nM with DENV-3 strain H87, 0.41 nM with DENV-2 16681 strain and 3.6 nM with DENV-1 strain TC974#666. Moreover, the CC50 with Vero cells came out at 5000 nM.

Take `COc1cc(NC(C(=O)c2c[nH]c3c(C)c(OC)ccc23)c2ccc(Cl)cc2OC)cc(S(C)(=O)=O)c1` (single isomer, unassigned) [Compound 6A, 2-(4-chloro-2-methoxyphenyl)-2-((3-methoxy-5-(methyl-sulfonyl)phenyl)amino)-1-(6-methoxy-7-methyl-1H-indol-3-yl)ethanone]: the EC50 with DENV-3 strain H87 was determined as 19 nM; with DENV-2 16681 strain, 0.068 nM; with DENV-1 strain TC974#666 it was 1.6 nM. The molecule also registered a half-maximal cytotoxic concentration (CC50) with Vero cells above 25000 nM.
